# What was measured:
# [1] = biological target: c-Kit kinase (Homo sapiens, UniProt P10721); experiment: c-Kit kinase biochemical activity assay (AlphaScreen, biotin-(E4Y)10 phosphorylation); conditions: 100 μM ATP; read-out: Biochemical Inhibition IC50 Kit
# Method in brief: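 AlphaScreen read-out (streptavidin donor, anti-phosphotyrosine PY20 acceptor beads, EDTA stop) of c-Kit activity. Reaction: 0.75 ng kinase, 100 µM ATP, 30 nM biotin-(E4Y)10, 25 mM HEPES pH 7.5, 2 mM MgCl2, 2 mM MnCl2, 5% DMSO, 1 h room temperature. IC50 derived over an 8-point, two-fold dilution series.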
# [2] = biological target: T1, BCR-KIT BaF3 cells (Homo sapiens, UniProt P10721); experiment: BaF3 BCR-KIT cell proliferation assay (ATPlite); type: cell-based; conditions: read-out: Inhibition of Cell Proliferation IC50, BCR/BaF3 Kit
# T1 construct: fused on or other part: P11274 (Breakpoint cluster region protein)
# T1 sequence (P10721 589-937): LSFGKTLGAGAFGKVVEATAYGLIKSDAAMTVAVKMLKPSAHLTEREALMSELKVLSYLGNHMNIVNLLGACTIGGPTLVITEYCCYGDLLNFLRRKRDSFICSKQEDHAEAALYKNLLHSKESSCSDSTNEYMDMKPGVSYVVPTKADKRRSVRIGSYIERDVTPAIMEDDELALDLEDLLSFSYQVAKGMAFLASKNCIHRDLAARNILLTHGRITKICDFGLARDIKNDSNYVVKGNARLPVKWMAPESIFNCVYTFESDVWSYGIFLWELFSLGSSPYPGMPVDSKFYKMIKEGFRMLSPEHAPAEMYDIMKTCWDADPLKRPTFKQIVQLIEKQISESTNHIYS
# Method in brief: (§1)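 For these proliferation assays, engineered BaF3 cells (10,000/well, IL-3 withdrawn) and MV-4-11 cells (25,000/well) received compound serially diluted 1:3 from 10 μM over 8 points, with DMSO as control. After three days of culture, ATP content was measured by luminescence to derive IC50.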
# [3] = biological target: T2, BCR-NTRK1 BaF3 cells (Homo sapiens, UniProt P04629); experiment: BaF3 BCR-NTRK1 cell proliferation assay (ATPlite); type: cell-based; conditions: read-out: Inhibition of Cell Proliferation IC50, BCR/BaF3 TrkA
# T2 construct: fused on or other part: P11274 (Breakpoint cluster region protein)
# T2 sequence (P04629 510-781): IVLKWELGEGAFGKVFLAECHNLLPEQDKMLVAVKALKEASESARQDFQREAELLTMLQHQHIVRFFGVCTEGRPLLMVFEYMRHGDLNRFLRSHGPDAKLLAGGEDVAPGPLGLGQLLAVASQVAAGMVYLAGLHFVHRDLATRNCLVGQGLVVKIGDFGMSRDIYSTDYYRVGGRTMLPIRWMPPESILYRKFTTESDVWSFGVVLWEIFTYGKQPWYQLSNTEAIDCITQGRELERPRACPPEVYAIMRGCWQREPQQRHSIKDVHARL
# Method in brief: as §1
# Sequence of c-Kit kinase (P10721 26-976): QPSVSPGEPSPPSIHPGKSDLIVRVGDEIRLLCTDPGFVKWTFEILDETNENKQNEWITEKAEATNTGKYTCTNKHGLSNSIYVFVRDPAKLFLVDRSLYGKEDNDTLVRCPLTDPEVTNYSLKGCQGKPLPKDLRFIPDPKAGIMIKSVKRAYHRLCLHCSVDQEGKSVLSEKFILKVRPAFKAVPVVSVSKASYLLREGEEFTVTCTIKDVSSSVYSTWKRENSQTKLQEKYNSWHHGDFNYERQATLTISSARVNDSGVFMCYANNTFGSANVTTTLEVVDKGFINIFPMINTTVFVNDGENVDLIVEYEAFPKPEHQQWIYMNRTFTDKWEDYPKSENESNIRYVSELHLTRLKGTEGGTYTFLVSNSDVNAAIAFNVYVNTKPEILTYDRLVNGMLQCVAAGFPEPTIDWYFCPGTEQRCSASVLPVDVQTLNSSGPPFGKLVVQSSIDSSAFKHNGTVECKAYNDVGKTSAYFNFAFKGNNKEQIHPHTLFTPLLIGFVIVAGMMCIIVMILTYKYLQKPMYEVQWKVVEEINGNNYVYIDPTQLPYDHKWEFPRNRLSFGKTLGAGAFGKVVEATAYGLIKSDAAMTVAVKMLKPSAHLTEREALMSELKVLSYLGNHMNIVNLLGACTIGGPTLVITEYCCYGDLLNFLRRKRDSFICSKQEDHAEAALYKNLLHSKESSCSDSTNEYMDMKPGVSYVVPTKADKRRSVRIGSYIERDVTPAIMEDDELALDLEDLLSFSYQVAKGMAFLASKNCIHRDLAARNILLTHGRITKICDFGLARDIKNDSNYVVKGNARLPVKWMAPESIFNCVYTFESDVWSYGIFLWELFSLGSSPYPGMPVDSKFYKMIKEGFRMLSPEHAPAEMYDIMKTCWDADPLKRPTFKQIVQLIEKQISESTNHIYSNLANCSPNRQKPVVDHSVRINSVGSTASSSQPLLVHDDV
IC50 [1],IC50 [2],IC50 [3],SMILES
< 100 nM,< 100 nM,< 10 nM,"Fc1nc(Nc2ccc(C3CC3)nc2)ccc1Cc1c[nH]c2ncnc(C3CC3)c12 [Compound P-4041, (6-Cyclopropyl-pyridin-3-yl)-[5-(4-cyclopropyl-7H-pyrrolo[2,3-d]pyrimidin-5-ylmethyl)-6-fluoro-pyridin-2-yl]-amine]"
> 1000 nM,< 1000 nM,< 1000 nM,"CNc1ncnc2[nH]cc(C(=O)c3cnc(NC4CCC(F)(F)CC4)c(F)c3)c12 [Compound P-4054, [6-[(4,4-difluorocyclohexyl)amino]-5-fluoro-3-pyridyl]-[4-(methylamino)-7H-pyrrolo[2,3-d]pyrimidin-5-yl]methanone]"
> 1000 nM,> 10000 nM,> 10000 nM,"Clc1cnc2[nH]cc(Cc3cnc(NC4CCC4)nc3)c2c1 [Compound P-3007, [5-(5-Chloro-1H-pyrrolo[2,3-b]pyridin-3-ylmethyl)-pyrimidin-2-yl]-cyclobutyl-amine]"
> 1000 nM,> 1000 nM,< 1000 nM,"O=C(c1cnc(NC2CCC(F)(F)CC2)c(F)c1)c1c[nH]c2ncnc(NCC(F)(F)F)c12 [Compound P-4052, [6-[(4,4-difluorocyclohexyl)amino]-5-fluoro-3-pyridyl]-[4-(2,2,2-trifluoroethylamino)-7H-pyrrolo[2,3-d]pyrimidin-5-yl]methanone]"
< 1000 nM,< 1000 nM,< 10 nM,"O=C(c1cnc(NC2CCC(F)(F)CC2)c(F)c1)c1c[nH]c2ncnc(NC3CC3)c12 [Compound P-4053, [4-(cyclopropylamino)-7H-pyrrolo[2,3-d]pyrimidin-5-yl]-[6-[(4,4-difluorocyclohexyl)amino]-5-fluoro-3-pyridyl]methanone]"
< 1000 nM,> 1000 nM,< 1000 nM,"CCNc1ncnc2[nH]cc(C(=O)c3cnc(NC4CCC(F)(F)CC4)c(F)c3)c12 [Compound P-4051, [6-[(4,4-difluorocyclohexyl)amino]-5-fluoro-3-pyridyl]-[4-(ethylamino)-7H-pyrrolo[2,3-d]pyrimidin-5-yl]methanone]"
< 1000 nM,> 1000 nM,,"Cc1cnc2[nH]cc(Cc3ccc(NC4CCCCC4)nc3F)c2c1 [Compound P-3008, cyclohexyl-[6-fluoro-5-(5-methyl-1H-pyrrolo[2,3-b]pyridin-3-ylmethyl)-pyridin-2-yl]-amine]"

# Continued, compound first:
SMILES,IC50 [1],IC50 [2],IC50 [3]
"CC(C)=CNc1ncnc2[nH]cc(C(=O)c3ccc(NC4CCC(F)(F)CC4)nc3Cl)c12 [Compound P-4047, [2-chloro-6-[(4,4-difluorocyclohexyl)amino]-3-pyridyl]-[4-(2-methylprop-1-enylamino)-7H-pyrrolo[2,3-d]pyrimidin-5-yl]methanone]",> 1000 nM,> 1000 nM,> 1000 nM
"Nc1ncnc2[nH]cc(C(=O)c3ccc(NC4CCC(F)(F)CC4)nc3Cl)c12 [Compound P-4046, (4-amino-7H-pyrrolo[2,3-d]pyrimidin-5-yl)-[2-chloro-6-[(4,4-difluorocyclohexyl)amino]-3-pyridyl]methanone]",< 1000 nM,< 1000 nM,< 1000 nM
"O=C(c1ccc(Nc2ccc(C3CC3)nc2)nc1F)c1c[nH]c2ncnc(C3CC3)c12 [Compound P-4040, [6-(6-Cyclopropyl-pyridin-3-ylamino)-2-fluoro-pyridin-3-yl]-(4-cyclopropyl-7H-pyrrolo[2,3-d]pyrimidin-5-yl)-methanone]",< 100 nM,< 100 nM,< 10 nM
"Nc1ncnc2[nH]cc(C(=O)c3ccc(Nc4ccc(C5CC5)nc4)nc3F)c12 [Compound P-4048, (4-amino-7H-pyrrolo[2,3-d]pyrimidin-5-yl)-[6-[(6-cyclopropyl-3-pyridyl)amino]-2-fluoro-3-pyridyl]methanone]",< 10 nM,< 1000 nM,< 1000 nM
"CCNc1ncnc2[nH]cc(C(=O)c3ccc(NC4CCC(F)(F)CC4)nc3Cl)c12 [Compound P-4050, [2-chloro-6-[(4,4-difluorocyclohexyl)amino]-3-pyridyl]-[4-(ethylamino)-7H-pyrrolo[2,3-d]pyrimidin-5-yl]methanone]",< 1000 nM,> 1000 nM,< 1000 nM
"CC(C)(O)CNc1ncnc2[nH]cc(C(=O)c3ccc(Nc4ccc(C5CC5)nc4)nc3F)c12 [Compound P-4049, [6-[(6-cyclopropyl-3-pyridyl)amino]-2-fluoro-3-pyridyl]-[4-[(2-hydroxy-2-methyl-propyl)amino]-7H-pyrrolo[2,3-d]pyrimidin-5-yl]methanone]",< 1000 nM,< 1000 nM,< 1000 nM
